# Experimental data: US8785149B2, “In vitro cellular bioassay for neurotoxicity testing” (The Arizona Board of Regents on Behalf of the University of …, priority 2010, dated 2014)
# “Also recorded” adds a separate entry of the source.
# Experiments:
# [1] = system: fascin-deficient singed-mutant neurons; assay: Primary neuron culture neurotoxicity screen, fascin-deficient neurons; settings: 3 days in vitro; for neurotoxic defects: 10 and 50 μM, phase-contrast morphology; for beads-on-a-string (BOS) defect (intra-neurite nodules): singed (sn) mutant larval CNS neurons; for BOS effect in sn-mutant, fascin-deficient neurons relative to wild-type: at each dose; for BOS density versus dose: wild-type and sn-mutant neurons, randomly selected neurons
# Text: Following this enzymatic treatment, the tissue is washed and then mechanically triturated in culture medium to dissociate it into single cells.
# [2] = system: wild-type (OreRC) neurons
# [3] = system: cultured neurons with mutations in the Drosophila fragile X mental retardation 1 gene (dfmr1); format: cell-based
# Text: In this case, the genetic control was designed (Michel et al. (2004). J. Neurosci., 23:5798-5809) to be identical in every possible way, except for the presence or absence of a normal dfmr1 gene.
SMILES,neurotoxic defects [1],beads-on-a-string (BOS) defect (intra-neurite nodules) [1],also measured
COc1ccc(C[C@H]2NC[C@H](O)[C@H]2OC(C)=O)cc1 [anisomycin],overt neurotoxic defects,–,–
CC(C)c1c(C(=O)Nc2ccccc2)c(-c2ccccc2)c(-c2ccc(F)cc2)n1CC[C@@H](O)C[C@@H](O)CC(=O)O [atorvastatin],–,beads-on-a-string (BOS) defect; also recorded: induced,neurite outgrowth [2]: inhibition of neurite outgrowth
C[C@@H]1C[C@@H]([C@H](O)CC2CC(=O)NC(=O)C2)C(=O)[C@@H](C)C1 [cycloheximide],overt neurotoxic defects,–,–
CC[C@H](C)C(=O)O[C@H]1C[C@@H](C)C=C2C=C[C@H](C)[C@H](CC[C@@H]3C[C@@H](O)CC(=O)O3)[C@H]21 [lovastatin],–,beads-on-a-string (BOS) defect; also recorded: induced,–
C[C@@H]1O[C@@H](O[C@H]2C[C@@H](O)[C@]3(CO)[C@H]4[C@H](O)C[C@]5(C)[C@@H](C6=CC(=O)OC6)CC[C@]5(O)[C@@H]4CC[C@]3(O)C2)[C@H](O)[C@H](O)[C@H]1O [ouabain],overt neurotoxic defects,–,–
CC(=O)O[C@H]1C(=O)[C@@]2(C)[C@H]([C@H](OC(=O)c3ccccc3)[C@]3(O)C[C@H](OC(=O)[C@H](O)[C@@H](NC(=O)c4ccccc4)c4ccccc4)C(C)=C1C3(C)C)[C@]1(OC(C)=O)CO[C@@H]1C[C@@H]2O [paclitaxel],overt neurotoxic defects,–,–
CC[C@H](C)C(=O)O[C@H]1C[C@H](O)C=C2C=C[C@H](C)[C@H](CC[C@@H](O)C[C@@H](O)CC(=O)O)[C@H]21 [pravastatin],–,beads-on-a-string (BOS) defect; also recorded: induced,"severity of BOS defect in dfmr1-mutant neurons versus control neurons [3]: less severe BOS defect; BOS effect in sn-mutant, fascin-deficient neurons relative to wild-type [1]: enhanced the sensitivity; BOS density versus dose [1]: increased with dose"
CC(C)c1nc(N(C)S(C)(=O)=O)nc(-c2ccc(F)cc2)c1/C=C/[C@@H](O)C[C@@H](O)CC(=O)O [rosuvastatin],–,beads-on-a-string (BOS) defect; also recorded: induced,"BOS effect in sn-mutant, fascin-deficient neurons relative to wild-type [1]: enhanced the sensitivity; BOS density versus dose [1]: increased with dose"
C[CH2][Hg][S]c1ccccc1C(=O)[O-].[Na+] [thimerosal],overt neurotoxic defects,–,–
